Data from patent US20140234988A1, “Methods for Diagnosing and Treating Medical Conditions Associated With Oxidative Stress” (priority 2011, published 2014).

Assays:
[1] = target: human serum albumin, binding site II (plasma of patients with sepsis) (Homo sapiens, UniProt P02768); conditions: septic group vs controls
Experimental: (§1) Plasma albumin concentrations were determined by using an automatic clinical chemical analyser (EuroLyser, Eurolyser Diagnostica, Salzburg, Austria).
Serum samples were diluted with PBS and adjusted to an albumin concentration of 40 μM. Based on the 40 μM sample, a dilution series with final concentrations of 20 μM, 10 μM, and 5 μM albumin (in PBS) was made. Each of these samples (250 μl) was mixed with the same volume of 10 μM DS (Sigma-Aldrich, Vienna, Austria) solution. Unbound DS molecules were separated from the plasma components via ultrafiltration (Ultrafree-MC reg. Cellulose 30K, Millipore, Vienna, Austria) at 500 g for 10 min at room temperature. 150 μl of the flow through were put into HPLC vials. As a control, 10 μM DS was diluted with the same volume of Millipore water and ultrafiltered as described. For an external standard curve, a dilution series of DS with Millipore water (10 μM, 5 μM, 2.5 μM, and 1.25 μM) was prepared. 20 μl of the filtrate were then injected to the HPLC system. […] DS was detected by means of determining fluorescence at 482/350 nm using a Hitachi F1050 (Merck) detector. Quantificaton via the peak heights was done using the EZ Chrom Elite chromatography software (VWR, Vienna, Austria). From the straight line obtained by the graph of ln (free DS) vs. albumin, the albumin concentration binding half of the ligand was calculated and given as IC50 (μmol/l). […]

[2] = target: human serum albumin, binding site II (plasma of patients with acute-on-chronic liver failure, ACLF) (Homo sapiens, UniProt P02768); conditions: ACLF group vs controls
Text: (§2) In blood samples derived from the study population (9 consecutive patients with acute-on-chronic liver failure (ACLF) being evaluated for extracorporeal liver support and 20 patients with cirrhosis who were candidates for liver transplantation), albumin was fractionated by HPLC as previously described (Kawai, K. et al. (2001) Tokai J. Exp. Clin. Med. 26, 93-99) resulting in three protein fractions representing cysteine 34 as free sulfhydryl form (HMA), as mixed disulfide (HNA1), or in a higher oxidation state (HNA2).
as §1
(§3) Serum samples were diluted with PBS and adjusted to an albumin concentration of 40 μM. Based on the 40 μM sample, a dilution series with final concentrations of 20 μM, 10 μM, and 5 μM albumin (in PBS) was made. Each of these samples (250 μl) was mixed with the same volume of 10 μM DS (Sigma-Aldrich, Vienna, Austria) solution. […] DS was detected by means of determining fluorescence at 482/350 nm using a Hitachi F1050 (Merck) detector. Quantificaton via the peak heights was done using the EZ Chrom Elite chromatography software (VWR, Vienna, Austria). From the straight line obtained by the graph of ln (free DS) vs. albumin, the albumin concentration binding half of the ligand was calculated and given as IC50 (μmol/l).

[3] = target: human serum albumin, binding site II (plasma of patients with cirrhosis) (Homo sapiens, UniProt P02768); conditions: cirrhotic patients vs controls
Chain of human serum albumin, binding site II (plasma of patients with cirrhosis) (P02768 25-609): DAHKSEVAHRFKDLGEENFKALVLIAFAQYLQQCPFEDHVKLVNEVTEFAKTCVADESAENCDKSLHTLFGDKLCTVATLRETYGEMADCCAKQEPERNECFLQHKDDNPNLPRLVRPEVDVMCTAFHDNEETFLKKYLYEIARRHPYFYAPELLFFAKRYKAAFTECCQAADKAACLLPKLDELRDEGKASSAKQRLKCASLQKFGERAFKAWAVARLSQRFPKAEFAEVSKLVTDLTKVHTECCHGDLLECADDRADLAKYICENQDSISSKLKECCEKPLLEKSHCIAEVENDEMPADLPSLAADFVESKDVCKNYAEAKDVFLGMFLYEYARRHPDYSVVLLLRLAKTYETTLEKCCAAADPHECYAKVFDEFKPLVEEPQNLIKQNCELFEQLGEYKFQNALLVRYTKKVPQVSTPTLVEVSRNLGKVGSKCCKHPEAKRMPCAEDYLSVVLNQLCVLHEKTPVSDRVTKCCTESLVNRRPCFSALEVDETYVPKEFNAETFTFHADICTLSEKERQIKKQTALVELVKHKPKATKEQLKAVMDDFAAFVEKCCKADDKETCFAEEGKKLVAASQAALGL
Text: as §2, §1, §3

Chain of human serum albumin, binding site II (plasma of patients with acute-on-chronic liver failure, ACLF) (P02768 25-609): as above
Chain of human serum albumin, binding site II (plasma of patients with sepsis) (P02768 25-609): as above

Compound: CN(C)c1cccc2c(S(=O)(=O)N(C)CC(=O)O)cccc12 [dansylsarcosine]
- IC50-values, compared with controls [1]: IC50-values were increased in the septic and ACLF group
- IC50-values, compared with controls [2]: IC50-values were increased in the septic and ACLF group
- DS binding, compared with controls [3]: no difference in DS binding between controls and cirrhotic patients
